Results taken from patent publication US9307761B2, “Microbial composition” (Rohm and Haas Company, priority 2011, dated 2016).

Columns and labels:
Type in all cases: cell-based
[1] = test system: Staphylococcus aureus (10788 strain); assay: Antimicrobial efficacy of actives against S. aureus in water, 15 seconds contact; settings: for MBC (minimum biocidal concentration): against S. Aureus, in water; for NMBS: S. aureus
[2] = test system: Escherichia coli (10536 strain); assay: 15 seconds contact kill assay of actives in water, mean bacterial survival NMBS; settings: E. coli; for NMBS: alone, 15 seconds contact
[3] = test system: Escherichia coli (E. coli—ATCC #10536); assay: Automated assessment of efficacy in model surfactant medium (2.85% sodium cocoyl glycinate and 1.85% sodium lauroamphoacetate), 15 seconds exposure, delta OD450/OD590; settings: for No. of replicates showing growth (out of 4) / Δ OD 450 nm = OD450 (time = 16 hours) − OD450 (time zero), Mean / Δ OD 590 nm OD590 (time = 16 hours) − OD590 (time zero), Mean: 15 s exposure
Protocol: Micobiocidal Activity of Actives as Per the Invention in a Model Surfactant Medium Test Methodology for Automated Assessment of Efficacy in Surfactant Base
Solutions were prepared such that the concentrations of the surfactant components and test actives were 1.1×the final desired concentration in order to allow for dilution with the bacterial inoculum in the test. The solutions were manually adjusted to […] by dropwise addition of sodium hydroxide solution, as measured with a pH meter at ambient temperature.
Tests were conducted using standard microtiter plate assays using an automated liquid handling system, 270 μl of the surfactant test solution was pipetted into each well of the microtitre plate and 30 μl of the bacterial suspension was then added. After exactly 15 seconds of bacterial exposure, a 30 μl volume of bacterial cells was withdrawn and transferred to 270 μl of D/E quench solution. After 5 minutes in the D/E quench, the optical density (OD) was measured for each plate in turn at two specific wavelengths (450 nm and 590 nm). These provide a dual check of antimicrobial activity, as the OD450 reading is specific for the yellow colour of D/E quench when bacterial growth is observed, whereas OD590 is specific for the initial purple colour of the D/E quench which is retained if no bacterial growth is observed. After the time zero OD measurements, plates were then incubated at 37° C. overnight (16 hours) before repeating the OD measurements. Delta OD values were calculated by subtracting […]. Bacterial growth is observed as art increase in OD450 and a decrease in ΔOD590. To identify antibacterially efficacious systems (those preventing appreciable bacterial growth after incubation), the following threshold changes in OD readings have been adopted: if (1). OD450 increases by less than 0.2 absorbance unit on incubation and (2). OD590 decreases by less than 0.35 unit on incubation. Conversely, where OD450 increases by more than 0.2 AU and OD590 decreases by more than 0.35 unit after incubation, corresponding to a colour shift from purple to yellow, the test system allows bacterial growth and is not deemed efficacious, four replicate measurements in the same plate have been made for each test system. The number of replicate wells showing either bacterial growth or no growth is also readily assessed by eye by following the colour change.
Dose responses for individual components and binary mixtures of actives at a fixed concentration ratio were generated by sequential dilution of liquors with further surfactant solution to obtain a series of endpoints.
In some selected cases, the combinations were also tested at the weight ratio 1:1.

S. aureus = assay: Synergy of terpinyl alcohols with phenolic compounds in water against S. aureus, log reduction after 15 seconds contact
Protocol: The procedure used was as follows:
Liquid actives were used directly. Solid actives were dissolved in alcohol and a 50% stock was made.
Preparation of Test Cultures:
The culture was grown overnight in Tryptone soya agar.
To 9 ml water the actives were added to give the desired concentration. 1 ml of the culture was added and mixed. After 15 seconds contact 1 ml aliquot was removed and added to a neutraliser and kept for 5 minutes. A control of untreated cells was similarly processed. It was then diluted and plated. The plates were incubated at 37° C. for 24 hours. The colonies on the plates were counted. The counts were converted to log10. The log no. of survivors was determined and log reduction calculated.

[4] = test system: Escherichia coli (E. coli—ATCC #10536); assay: Synergy tests: high resolution MBC microtiter plate assay, 15 seconds contact, phosphate buffer containing […] dipropylene glycol; settings: E. coli 10536; at Qa and Qb; <1 synergy, 1 additivity, >1 antagonism
From the text: The concentrations and ratios may also vary under different test conditions or with different test methods.
One measure of synergy is the industrially accepted method described by Kull, F. C.; Eisman, P. C.; Sylwestrowicz, H. D. and Mayer, R. L., in Applied Microbiology 9:538-541 (1961), using the ratio determined by the formula: Qa/QA+Qb/QB=Synergy Index (“SI”) wherein: • QA=concentration of compound A (first component) in percent, acting alone, which produced an end point (MBC of Compound A). • Qa=concentration of compound A in percent, in the mixture, which produced an end point. • QB=concentration of compound B (second component) in percent, acting alone, which produced an end point (MBC of Compound B). • Qb=concentration of compound B in percent, in the mixture, which produced an end point.
When the sum of Qa/QA and Qb/QB is greater than one, antagonism is indicated. […] The lower the SI, the greater is the synergy shown by that particular mixture. The minimum biocidal concentration (MBC) of a microbicide is the lowest concentration tested under a specific set of conditions that provides complete kill of the tested microorganisms.
Synergy tests were conducted using standard microtiter plate assays with phosphate buffer containing 3.5% dipropylene glycol (DPG). In this method, a wide range of combinations of chemicals was tested by conducting high resolution MBC assays of Component (A) in the presence of various concentrations of Component (B). High resolution MBCs were determined by adding varying amounts of microbicide to one column of a microtiter plate and doing subsequent […] dilutions using an automated liquid handling system to obtain a series of closely spaced endpoints. The MBC plate was inoculated one column at a time with the test microorganism. An aliquot of the inoculated well was transferred at 15 seconds to a plate containing a neutralizing agent (D/E Neutralizing Broth), mixed and held for 5 minutes before being transferred to a growth plate containing trypticase soy broth (TSB). The TSB plate was incubated at 37° C. and read for the presence/absence of growth at 24 hours. The lowest level tested that provided complete kill (as evidenced by no growth in the microtitre plate) of the test organisms in 15 seconds is the minimum biocidal concentration (MBC).
The synergy of the combinations of the present invention was determined against a bacterium, Escherichia coli (E. coli—ATCC #10536), at a concentration of approximately 1×10^8 bacteria, per mL. This microorganism is representative of natural contaminants in many consumer and industrial applications.

[5] = single active alone at 0.125% w/v, water
[6] = single active alone at 0.05% w/v, model surfactant solution
[7] = single active alone at 0.1% w/v, model surfactant solution
[8] = single active alone at […] w/v, model surfactant solution

Q: For CCCc1ccccc1O [2-n-propylphenol], which “MBC (minimum biocidal concentration)” value [1] is on record?
A: 0.25 % w/v

Q: And the MBC of phenol ([1]; phenol alone, complete bacterial kill against S. aureus, water)?
A: 0.25 % (w/v)

Q: And the NMBS ([1]; single active alone at 0.1% w/v, water)?
A: 7.30 log CFU/ml

Q: And the NMBS [1, 5]?
A: 7.19 log CFU/ml

Q: And the NMBS ([1]; single active alone at […] w/v, water)?
A: 0 log CFU/ml

Q: And the NMBS ([2]; 0.05% w/v)?
A: 7.71 log CFU/ml

Q: What about the NMBS ([2]; 0.125% w/v) of the same molecule?
A: 0 log CFU/ml

Q: What about the “MBC (minimum biocidal concentration)” value ([2]; in water, component alone) of the same molecule?
A: 0.125 % w/v

Q: What about the NMBS ([2]; […] w/v) of the same molecule?
A: 0 log CFU/ml

Q: What about the “No. of replicates showing growth (out of 4)” value [3, 6] of the same molecule?
A: 4

Q: And the “Δ OD 450 nm = OD450 (time = 16 hours) − OD450 (time zero), Mean” value (“Δ OD 450 nm = OD450” for short) [3, 6]?
A: −1.43

Q: What about the “Δ OD 590 nm OD590 (time = 16 hours) − OD590 (time zero), Mean” value (“Δ OD 590 nm OD590” below) [3, 6] of the same molecule?
A: 0.46

Q: What about the “No. of replicates showing growth (out of 4)” value [3, 7] of the same molecule?
A: 4

Q: What about the “Δ OD 450 nm = OD450” value [3, 7] of the same molecule?
A: −1.42

Q: And the “Δ OD 590 nm OD590” value [3, 7]?
A: 0.46

Q: What about the “No. of replicates showing growth (out of 4)” value [3, 8] of the same molecule?
A: 4

Q: And the “Δ OD 450 nm = OD450” value [3, 8]?
A: −1.15

Q: What about the “Δ OD 590 nm OD590” value [3, 8] of the same molecule?
A: 0.66

Q: With CCC(C)c1ccc(O)cc1 (centres unmarked) [4-sec butyl phenol] as the molecule, how does the “Log reduction S. aureus ATCC 6538” value (S. aureus; phenolic compound alone at 0.05%) read?
A: 0.0

Q: How did the “MBC (minimum biocidal concentration)” value [1] turn out when C=C(C)[C@@H]1CC=C(CO)CC1 [(4S)-(4-(prop-1-en-2-yl)cyclohex-1-enyl)methanol] was run?
A: >1.0 % w/v

Q: What about the NMBS [1, 5] of the same molecule?
A: 7.19 log CFU/ml

Q: What about the NMBS ([1]; single active alone at 0.4% w/v, water) of the same molecule?
A: 7.14 log CFU/ml

Q: What about the NMBS ([1]; single active alone at 0.625% w/v, water) of the same molecule?
A: 7.15 log CFU/ml

Q: And the NMBS ([1]; single active alone at 1.0% w/v, water)?
A: 7.39 log CFU/ml

Q: What about the “MBC of terpene alcohol” value ([1]; terpene alcohol alone, complete bacterial kill against S. aureus, water) of the same molecule?
A: 1.0 % (w/v)

Q: And the “SI (Synergy Index = Qa/QA + Qb/QB)” value [4]?
A: 1.00

Q: What about the MBC ([3]; Escherichia coli, ATCC10536, 15 s, in 2.85% sodium cocoyl glycinate + 1.85% sodium lauroamphoacetate solution at pH 10, E. coli, read-out: MBC (minimum biocidal concentration)) of the same molecule?
A: 4000 µg/mL

Q: And the “MBC of terpene alcohol” value ([3]; terpene alcohol alone, complete bacterial kill against E. coli, model surfactant solution)?
A: 0.4 % (w/v)

Q: C=C(C)[C@@H]1CC=C(CO)CC1 [perillyl alcohol] was tested. Which “Log reduction S. aureus ATCC 6538” value (S. aureus; terpinyl alcohol alone at […]) did it give?
A: −0.6
